Results on two molecules are retold here after US20170258943A1, “Using Heavy Water as a Contrast Agent for Hydrogen Magnetic Resonance Imaging” (National Tsing Hua University, priority 2014, published 2017).

A short description of series [1]: Dynamic H MRI of rat brain after intravenous injection of contrast agent. To be noted: whole brain ROI, 1.5 mL D2O into tail vein (about 0.6% of body weight), 4.7 T. Format: in vivo, Sprague-Dawley rats. Here is the method:
Please refer to FIG. 2A and FIG. 2B, which are views showing consecutive MRI images and a curve of signal change. As shown in the figures, 6 normal adult Sprague-Dawley rats (˜200-310 g) are used. Each rat is anesthetized with 1.5% isoflurane/air via a nose cone with respiratory monitoring. Tail vein catheterization is performed with a 0.8-m long polyethylene tube connected to a 23-gaude needle, where a dead volume in a catheter is about 0.2 ml. On operating, 1.5 mL of D2O (99.8%, Cambridge Isotope, Woburn, Mass.) is manually injected into tail vein. After injecting, the catheter is flushed with 0.5 mL 0.9% NaCl solution. For comparison, an additional 0.2 mL Gd-DTPA (Magnevist) is manually injected into tail vein while D2O scanning is completed after 10 min. After injection, the catheter is flushed with 0.5 mL 0.9% NaCl solution. In vivo brain imaging is performed in prone position. All images are acquired on a 4.7 animal MRI scanner (Bruker Biospec 47/40). The parameters for the dynamic images are as follow: TR/TE/θ=1000 ms/30 ms/90 degree, FOV=2.9 cm, matrix size=128×128, and slice thickness=1 mm. Averaged signals from whole brain are portrayed as a signal-intensity curve. For comparison, the signal-intensity curve is transferred into a percentage change curve according to the following formula: Therein, S(t) is a signal at time t and S0 is a signal before using the contrast agent. […]

A short description of series [2]: T1 and T2 relaxation rates of H in D2O concentration phantom. Format: physicochemical. The note with it: FIG. 1A. On the procedure:
The R1 and R2 in the vertical axis are the relaxation rates of T1 and T2 relaxation, respectively.
In an experimental phantom with D2O concentration as c, respective concentrations of H2O, HDO, and D2O are (1-c)^2, 2c(1-c), and c^2, where a part of c of H is replaced by D. Population ratio of H coupled H and D coupled H is calculated as (1-c):c. The observed T1 and T2 relaxation rates are the population weighted sums of all H. Since the D coupled H has slower relaxation rates than H coupled H, we observe linear relations of R1 and R2 as changing the D2O concentration c in FIG. 1A and FIG. 1B.

The conditions of series [3]: amount of injected D2O less than 20% of body weight; cited from earlier work.
For series [4] the following is noted: patients having kidney diseases; cited from earlier work.

For the molecule `[2H]O[2H]` [D2O, deuterium oxide], in series [1], the signal change came out at 10%. Moreover, the “T1 relaxation rate (R1) of H versus D2O concentration” value in series [2] is on record as “linearly decreased”. For the same molecule, the toxicity to animals entry in series [3] was “not toxic”.

As to `O=C([O-])CN(CCN(CC(=O)[O-])CC(=O)O)CCN(CC(=O)[O-])CC(=O)O.[Gd+3]` [Gd-DTPA], the “nephrogenic systemic fibrosis (NSF)” value in series [4] is given as “possible to cause nephrogenic systemic fibrosis (NSF)”.
